Values of other authors in patent US10617673B2, “Cannabinoid receptor antagonists/inverse agonists useful for treating metabolic disorders, including obesity and diabetes” (Jenrin Discovery, LLC, priority 2012, dated 2020).

Details: type 2 diabetes patients not on other anti-diabetic medications, after six months, baseline value 7.9

Cc1c(C(=O)NN2CCCCC2)nn(-c2ccc(Cl)cc2Cl)c1-c1ccc(Cl)cc1 [rimonabant]
HbA1c levels lowered: 0.8%
